SMILES strings stand for the structures.

Here are results for 30 compounds from US9409880B2, “Modulators of TLR3/dsRNA complex and uses thereof” (The Regents of the University of Colorado, a body corporate, priority 2011, dated 2016).

The first assay concerns the target T1, TLR3 (Mus musculus, UniProt Q99MB1).
T1 construct: endogenous in cells; host or cells: RAW 264.7
T1 sequence (Q99MB1 26-905): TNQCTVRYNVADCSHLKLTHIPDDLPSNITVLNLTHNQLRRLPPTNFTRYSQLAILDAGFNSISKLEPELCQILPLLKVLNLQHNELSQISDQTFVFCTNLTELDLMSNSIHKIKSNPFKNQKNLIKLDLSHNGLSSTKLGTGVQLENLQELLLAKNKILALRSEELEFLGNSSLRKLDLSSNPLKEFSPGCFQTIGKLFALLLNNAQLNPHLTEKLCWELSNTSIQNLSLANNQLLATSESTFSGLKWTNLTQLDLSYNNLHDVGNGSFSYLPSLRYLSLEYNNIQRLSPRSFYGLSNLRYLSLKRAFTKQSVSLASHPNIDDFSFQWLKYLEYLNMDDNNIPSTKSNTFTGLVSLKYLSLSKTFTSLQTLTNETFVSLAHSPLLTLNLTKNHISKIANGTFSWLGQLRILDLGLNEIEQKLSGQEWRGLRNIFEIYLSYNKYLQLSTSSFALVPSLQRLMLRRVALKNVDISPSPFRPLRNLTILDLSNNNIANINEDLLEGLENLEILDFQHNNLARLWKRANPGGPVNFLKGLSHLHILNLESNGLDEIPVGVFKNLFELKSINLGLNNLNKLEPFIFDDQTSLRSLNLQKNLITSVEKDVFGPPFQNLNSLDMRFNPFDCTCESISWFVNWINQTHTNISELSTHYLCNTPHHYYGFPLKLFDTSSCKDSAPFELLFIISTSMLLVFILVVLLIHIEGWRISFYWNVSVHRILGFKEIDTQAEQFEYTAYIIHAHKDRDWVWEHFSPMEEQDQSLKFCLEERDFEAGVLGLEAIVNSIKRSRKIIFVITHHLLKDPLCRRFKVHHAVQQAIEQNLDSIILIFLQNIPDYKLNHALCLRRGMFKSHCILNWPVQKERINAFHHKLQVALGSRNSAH
Description: In vitro TLR3 inhibition assay: Poly IC-induced NO production in RAW 264.7 cells. The conditions noted are these: 6a vs 4a. Format: cell-based. The source says:
The initial hits (Figure A) were first evaluated using the present inventors' previously established high-throughput cell assay of TLR3 activation. See, for example, ACS Med. Chem. Lett. 2010, 1, 194 and Bioorg. Med. Chem. Lett., 2010, 20, 5411. Poly IC (Polyriboinosinic:polyribocytidylic acid) has been reported to selectively activate TLR3 signaling, resulting in the activation of nitric oxide synthase and the production nitric oxide (NO) in RAW 264.7 macrophage cells. The NO level was monitored as an indicator of Poly IC-induced TLR3 activation to evaluate the drug's inhibitory activity.
RAW 264.7 (Mouse leukaemic monocyte macrophage cell line) cells were grown in RPMI 1640 medium, supplemented with 10% FBS, penicillin (100 U/mL) and streptomycin ([…]). RAW cells were then planted in 96-well plates at 100,000 cells per well and grown for 24 h in the media descried previously at 37° C. in a 5% CO2 humidified incubator. After 24 h, non-adherent cells and media were removed and replaced with fresh RPMI 1640 medium (only RPMI). The adherent macrophages were treated with high molecular weight polyinosine-polycytidylic acid (Poly IC) (10 μg/mL) (Invivogen), an agonist of TLR3, and then added different concentrates of potential inhibitor. Two rows were only treated with Poly IC as an control. Plates were then incubated for an additional 24 h. Following incubation 100 μL of media was removed and added to flat black 96-well microfluor plates (Thermo Scientific, MA, USA). To each well, 10 μL of 2,3-diaminonaphthalene (0.05 mg/mL in 0.62 M aqueous HCl solution) was added and incubated for 15 min in the dark. The reaction was quenched by addition of 5 μL of a 3 M aqueous NaOH solution and the plate was read on Beckman Coulter DTX880 reader (Beckman Coulter, Calif., USA) with excitation at 365 nm and emission at 450 nm. The nitrite (a stable metabolite of nitric oxide) concentration was determined from a nitrite standard curve. The inhibition rate (%) of NO release was determined using the following formula: Inhibition (%)=[Poly IC(OD450)−Compounds (OD450)]/[Poly IC(OD450)−Control (OD450)]×100. The IC50 values for both inhibition and cytotoxicity were determined graphically using software Origin v7.5.
The compound `COc1ccc2c(Cl)c(C(=O)N[C@H](Cc3ccccc3)C(=O)O)sc2c1` [Compound 6a, (R)-2-(3-chloro-6-methoxybenzo[b]thiophene-2-carboxamido)-3-phenylpropanoic acid] yielded a decrease in potency of 10 fold.

Staying with this assay, now noted: whole cell inhibitory activity; Poly IC-induced NO, RAW 264.7; average ± SD, at least three independent tests.
With `O=C(N[C@@H](Cc1ccccc1)C(=O)O)c1cc2ccccc2s1` [Compound 1b, (S)-2-(benzo[b]thiophene-2-carboxamido)-3-phenylpropanoic acid], the IC50 (in general, the concentration needed to halve the response being measured) was greater than 155 µM.
Compound `Cc1ccc2c(Cl)c(C(=O)N[C@H](Cc3ccccc3)C(=O)O)sc2c1` [Compound 2a, (R)-2-(3-chloro-6-methylbenzo[b]thiophene-2-carboxamido)-3-phenylpropanoic acid] displayed an IC50 of 11.8 ± 1.3 µM.
On the same count and under the same terms, the value for `Cc1ccc2c(Cl)c(C(=O)N[C@@H](Cc3ccccc3)C(=O)O)sc2c1` [Compound 2b, (S)-2-(3-chloro-6-methylbenzo[b]thiophene-2-carboxamido)-3-phenylpropanoic acid] was 31.7 ± 0.7 µM; that for `O=C(N[C@H](Cc1ccccc1)C(=O)O)c1sc2cc(Cl)ccc2c1Cl` [Compound 3a, (R)-2-(3,6-dichlorobenzo[b]thiophene-2-carboxamido)-3-phenylpropanoic acid] was 5.6 ± 0.32 µM.
Compound `O=C(N[C@@H](Cc1ccccc1)C(=O)O)c1sc2cc(Cl)ccc2c1Cl` [Compound 3b, (S)-2-(3,6-dichlorobenzo[b]thiophene-2-carboxamido)-3-phenylpropanoic acid] came in with an IC50 of 11.8 ± 2.5 µM.
On the same count and under the same terms, the value for `O=C(N[C@@H](Cc1ccccc1)C(=O)O)c1sc2cc(F)ccc2c1Cl` [Compound 4b, (S)-2-(3-chloro-6-fluorobenzo[b]thiophene-2-carboxamido)-3-phenylpropanoic acid] was 21.9 ± 0.7 µM; that for `O=C(N[C@H](Cc1ccccc1)C(=O)O)c1sc2cc(C(F)(F)F)ccc2c1Cl` [Compound 5a, (R)-2-(3-chloro-6-(trifluoromethyl)benzo[b]thiophene-2-carboxamido)-3-phenylpropanoic acid] was 6.28 ± 1.05 µM; that for `O=C(N[C@@H](Cc1ccccc1)C(=O)O)c1sc2cc(C(F)(F)F)ccc2c1Cl` [Compound 5b, (S)-2-(3-chloro-6-(trifluoromethyl)benzo[b]thiophene-2-carboxamido)-3-phenylpropanoic acid] was 19.8 ± 3.6 µM.
On the same count and under the same terms, then `COc1ccc2c(Cl)c(C(=O)N[C@H](Cc3ccccc3)C(=O)O)sc2c1` [Compound 6a, (R)-2-(3-chloro-6-methoxybenzo[b]thiophene-2-carboxamido)-3-phenylpropanoic acid], with 36.7 ± 3.9 µM; and `COc1ccc2c(Cl)c(C(=O)N[C@@H](Cc3ccccc3)C(=O)O)sc2c1` [Compound 6b, (S)-2-(3-chloro-6-methoxybenzo[b]thiophene-2-carboxamido)-3-phenylpropanoic acid], with greater than 100 µM; and `O=C(N[C@H](Cc1ccc(O)cc1)C(=O)O)c1sc2cc(F)ccc2c1Cl` [Compound 7a, (R)-2-(3-chloro-6-fluorobenzo[b]thiophene-2-carboxamido)-3-(4-hydroxyphenyl)propanoic acid], with 56.4 ± 5.2 µM.
In turn, `O=C(N[C@@H](Cc1ccc(O)cc1)C(=O)O)c1sc2cc(F)ccc2c1Cl` [Compound 7b, (S)-2-(3-chloro-6-fluorobenzo[b]thiophene-2-carboxamido)-3-(4-hydroxyphenyl)propanoic acid] gave an IC50 of 84.7 ± 2.4 µM.
`O=C(N[C@H](Cc1ccccc1)C(=O)O)c1sc2cc(F)c(F)cc2c1Cl` [Compound 8a, (R)-2-(3-chloro-5,6-difluorobenzo[b]thiophene-2-carboxamido)-3-phenylpropanoic acid] yielded an IC50 of 70.7 ± 2.1 µM.
On the same count and under the same terms, the value for `O=C(N[C@@H](Cc1ccccc1)C(=O)O)c1sc2cc(F)c(F)cc2c1Cl` [Compound 8b, (S)-2-(3-chloro-5,6-difluorobenzo[b]thiophene-2-carboxamido)-3-phenylpropanoic acid] was 79.5 ± 3.4 µM; that for `O=C(N[C@H](Cc1ccc(O)cc1)C(=O)O)c1cc2ccccc2s1` [Compound 9a, (R)-2-(benzo[b]thiophene-2-carboxamido)-3-(4-hydroxyphenyl)propanoic acid] was greater than 100 µM.
Compound `O=C(N[C@@H](Cc1ccc(O)cc1)C(=O)O)c1cc2ccccc2s1` [Compound 9b] showed an IC50 greater than 100 µM.
On the same count and under the same terms, then `O=C(N[C@H](Cc1ccccc1)C(=O)O)c1cc2cc(F)ccc2s1` [Compound 10a, (R)-2-(5-fluorobenzo[b]thiophene-2-carboxamido)-3-phenylpropanoic acid], with greater than 100 µM; and `O=C(N[C@@H](Cc1ccccc1)C(=O)O)c1cc2cc(F)ccc2s1` [Compound 10b, (S)-2-(5-fluorobenzo[b]thiophene-2-carboxamido)-3-phenylpropanoic acid], with greater than 100 µM; and `O=C(N[C@H](Cc1ccccc1)C(=O)O)c1sc2ccccc2c1Cl` [Compound 11a, (R)-2-(3-chlorobenzo[b]thiophene-2-carboxamido)-3-phenylpropanoic acid], with greater than 100 µM.
`O=C(N[C@@H](Cc1ccccc1)C(=O)O)c1sc2ccccc2c1Cl` [Compound 11b, (S)-2-(3-chlorobenzo[b]thiophene-2-carboxamido)-3-phenylpropanoic acid]: the IC50 was greater than 100 µM.
Same read-out and setting: then `O=C(N[C@H](Cc1ccccc1)C(=O)O)c1sc2ccc(F)cc2c1Cl` [Compound 12a, (R)-2-(3-chloro-5-fluorobenzo[b]thiophene-2-carboxamido)-3-phenylpropanoic acid], with 47.3 ± 4.1 µM; and `O=C(N[C@@H](Cc1ccccc1)C(=O)O)c1sc2ccc(F)cc2c1Cl` [Compound 12b, (S)-2-(3-chloro-5-fluorobenzo[b]thiophene-2-carboxamido)-3-phenylpropanoic acid], with 54.1 ± 5.7 µM.
On the same count and under the same terms, then `O=C(N[C@H](Cc1ccccc1)C(=O)O)c1cc2ccc(F)cc2s1` [Compound 13a, (R)-2-(6-fluorobenzo[b]thiophene-2-carboxamido)-3-phenylpropanoic acid], with greater than 100 µM; and `O=C(N[C@@H](Cc1ccccc1)C(=O)O)c1cc2ccc(F)cc2s1` [Compound 13b, (S)-2-(6-fluorobenzo[b]thiophene-2-carboxamido)-3-phenylpropanoic acid], with greater than 100 µM.

Staying with this assay, now noted: whole cell inhibitory activity; second part of Table 1 (R5/R6 series).
The compound `O=C(O)[C@@H](Cc1ccccc1)NS(=O)(=O)c1ccccc1F` [Compound 14a, (R)-2-(2-fluorophenylsulfonamido)-3-phenylpropanoic acid] yielded an IC50 greater than 100 µM.
The same measure, in the same setting: the value for `O=C(O)[C@H](Cc1ccccc1)NS(=O)(=O)c1ccccc1F` [Compound 14b, (S)-2-(2-fluorophenylsulfonamido)-3-phenylpropanoic acid] was greater than 100 µM.
Same read-out and setting: then `O=C(O)[C@@H](Cc1ccccc1)NS(=O)(=O)c1cccc(F)c1` [Compound 15a, (R)-2-(3-fluorophenylsulfonamido)-3-phenylpropanoic acid], with greater than 100 µM.
Still for that read-out and setting: then `O=C(O)[C@H](Cc1ccccc1)NS(=O)(=O)c1cccc(F)c1` [Compound 15b, (S)-2-(3-fluorophenylsulfonamido)-3-phenylpropanoic acid], with greater than 100 µM; and `O=C(O)[C@@H](Cc1ccccc1)NS(=O)(=O)c1ccc(F)cc1` [Compound 16a, (R)-2-(4-fluorophenylsulfonamido)-3-phenylpropanoic acid], with greater than 100 µM.
The compound `O=C(O)[C@H](Cc1ccccc1)NS(=O)(=O)c1ccc(F)cc1` [Compound 16b, (S)-2-(4-fluorophenylsulfonamido)-3-phenylpropanoic acid] had an IC50 greater than 100 µM.
